“And” between values parts separate entries of the source, which are not always exact repeats. Equal values may be shown once.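 Values below derive from 48-hour exposures of cells grown in 96-well plates, with endpoints linearly interpolated between the two concentrations bracketing the appropriate inhibition level. Here, GI50 denotes the concentration required for 50% inhibition of growth. TGI marks complete inhibition of growth.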
Experiments:
Assay in all cases: growth of human tumour cells (NCI), 48 h
786-0 renal = test system: 786-0 renal
A498 renal = test system: A498 renal
A549 NSCLC = test system: A549 NSCLC
ACHN renal = test system: ACHN renal
BT-549 breast = test system: BT-549 breast
CAKI-1 renal = test system: CAKI-1 renal
CCRF-CEM leukemia = test system: CCRF-CEM leukemia
COLO 205 colon = test system: COLO 205 colon
DU-145 prostate = test system: DU-145 prostate
EKVX NSCLC = test system: EKVX NSCLC
HCC-2998 colon = test system: HCC-2998 colon
HCT-116 colon = test system: HCT-116 colon
HCT-15 colon = test system: HCT-15 colon
HL-60(TB) leukemia = test system: HL-60(TB) leukemia
HOP-62 NSCLC = test system: HOP-62 NSCLC
HOP-92 NSCLC = test system: HOP-92 NSCLC
HS 578T breast = test system: HS 578T breast
HT29 colon = test system: HT29 colon
IGROV1 ovarian = test system: IGROV1 ovarian
K-562 leukemia = test system: K-562 leukemia
KM12 colon = test system: KM12 colon
LOX IMVI melanoma = test system: LOX IMVI melanoma
M14 melanoma = test system: M14 melanoma
MALME-3M melanoma = test system: MALME-3M melanoma
MCF7 breast = test system: MCF7 breast
MDA-MB-231 breast = test system: MDA-MB-231 breast
MDA-MB-435 = test system: MDA-MB-435
MOLT-4 leukemia = test system: MOLT-4 leukemia
NCI-H226 lung = test system: NCI-H226 lung
NCI-H23 lung = test system: NCI-H23 lung
NCI-H460 lung = test system: NCI-H460 lung
NCI-H522 lung = test system: NCI-H522 lung
NCI/ADR-RES ovarian = test system: NCI/ADR-RES ovarian
OVCAR-3 ovarian = test system: OVCAR-3 ovarian
OVCAR-4 ovarian = test system: OVCAR-4 ovarian
OVCAR-5 ovarian = test system: OVCAR-5 ovarian
OVCAR-8 ovarian = test system: OVCAR-8 ovarian
PC-3 prostate = test system: PC-3 prostate
RPMI-8226 leukemia = test system: RPMI-8226 leukemia
RXF 393 renal = test system: RXF 393 renal
SF-268 CNS = test system: SF-268 CNS
SF-295 CNS = test system: SF-295 CNS
SF-539 CNS = test system: SF-539 CNS
SK-MEL-2 melanoma = test system: SK-MEL-2 melanoma
SK-MEL-28 melanoma = test system: SK-MEL-28 melanoma
SK-MEL-5 melanoma = test system: SK-MEL-5 melanoma
SK-OV-3 ovarian = test system: SK-OV-3 ovarian
SN12C renal = test system: SN12C renal
SNB-19 CNS = test system: SNB-19 CNS
SNB-75 CNS = test system: SNB-75 CNS
SR leukemia = test system: SR leukemia
SW-620 colon = test system: SW-620 colon
T-47D breast = test system: T-47D breast
TK-10 renal = test system: TK-10 renal
U251 CNS = test system: U251 CNS
UACC-257 melanoma = test system: UACC-257 melanoma
UACC-62 melanoma = test system: UACC-62 melanoma
UO-31 renal = test system: UO-31 renal

## Cc1cc([N+](=O)[O-])c2ccccc2[n+]1[O-]
786-0 renal
  GI50: 158 nM and 258 nM
  TGI: 483 nM and 750 nM
A498 renal
  GI50: 185 nM and 144 nM
  TGI: 464 nM and 416 nM
A549 NSCLC
  GI50: 245 nM and 204 nM
  TGI: 807 nM and 905 nM
ACHN renal
  GI50: 75.8 nM and 61.4 nM
  TGI: 394 nM and 721 nM
BT-549 breast
  GI50: 216 nM and 388 nM
  TGI: 879 nM and 1630 nM
CAKI-1 renal
  GI50: 541 nM and 627 nM
  TGI: 3920 nM and 2350 nM
CCRF-CEM leukemia
  GI50: 2240 nM and 650 nM
  TGI: > 47800 nM and 7180 nM
COLO 205 colon
  GI50: 113 nM and 117 nM
  TGI: 338 nM and 319 nM
DU-145 prostate
  GI50: 73 nM and 81.5 nM
  TGI: 325 nM and 564 nM
EKVX NSCLC
  GI50: 2770 nM
  TGI: 12000 nM
HCC-2998 colon
  GI50: 128 nM and 221 nM
  TGI: 375 nM and 664 nM
HCT-116 colon
  GI50: 47.2 nM and 40.7 nM
  TGI: 336 nM and 364 nM
HCT-15 colon
  GI50: 185 nM and 213 nM
  TGI: 797 nM and 1030 nM
HL-60(TB) leukemia
  GI50: 2110 nM and 1650 nM
  TGI: 6480 nM and 5510 nM
HOP-62 NSCLC
  GI50: 188 nM and 250 nM
  TGI: 835 nM and 1130 nM
HOP-92 NSCLC
  GI50: 308 nM and 153 nM
  TGI: 1730 nM and 597 nM
HS 578T breast
  GI50: 1180 nM and 989 nM
  TGI: 5740 nM and 4800 nM
HT29 colon
  GI50: 66 nM and 94.8 nM
  TGI: 328 nM and 393 nM
IGROV1 ovarian
  GI50: 2580 nM and 3260 nM
  TGI: 11900 nM and 10300 nM
K-562 leukemia
  GI50: 156 nM and 99.1 nM
  TGI: 4280 nM and 3040 nM
KM12 colon
  GI50: 173 nM and 203 nM
  TGI: 829 nM and 1050 nM
LOX IMVI melanoma
  GI50: 1160 nM and 385 nM
  TGI: 3480 nM and 1870 nM
M14 melanoma
  GI50: 239 nM and 259 nM
  TGI: 1080 nM and 1110 nM
MALME-3M melanoma
  GI50: 1390 nM and 2170 nM
  TGI: 3070 nM and 4340 nM
MCF7 breast
  GI50: 48.9 nM and 34.2 nM
  TGI: 461 nM and 450 nM
MDA-MB-231 breast
  GI50: 218 nM and 202 nM
  TGI: 755 nM and 720 nM
MDA-MB-435
  GI50: 336 nM and 286 nM
  TGI: 1580 nM and 1200 nM
MOLT-4 leukemia
  GI50: 869 nM and 1190 nM
  TGI: 7800 nM and 5950 nM
NCI-H226 lung
  GI50: 571 nM and 927 nM
  TGI: 3270 nM and 4620 nM
NCI-H23 lung
  GI50: 504 nM and 590 nM
  TGI: 2510 nM and 3750 nM
NCI-H460 lung
  GI50: 30.7 nM and 28.2 nM
  TGI: 129 nM and 109 nM
NCI-H522 lung
  GI50: 739 nM and 303 nM
  TGI: 2420 nM and 959 nM
NCI/ADR-RES ovarian
  GI50: 547 nM and 1420 nM
  TGI: 3450 nM and 7680 nM
OVCAR-3 ovarian
  GI50: 392 nM and 319 nM
  TGI: 1710 nM and 1250 nM
OVCAR-4 ovarian
  GI50: 2720 nM and 2610 nM
  TGI: 10100 nM and 9130 nM
OVCAR-5 ovarian
  GI50: 2020 nM and 2260 nM
  TGI: 7210 nM and 7120 nM
OVCAR-8 ovarian
  GI50: 683 nM and 688 nM
  TGI: 3880 nM and 4860 nM
PC-3 prostate
  GI50: 165 nM and 149 nM
  TGI: 1010 nM and 663 nM
RPMI-8226 leukemia
  GI50: 60.2 nM and 30.8 nM
  TGI: 359 nM and 94.8 nM
RXF 393 renal
  GI50: 181 nM and 170 nM
  TGI: 455 nM and 512 nM
SF-268 CNS
  GI50: 396 nM and 405 nM
  TGI: 5840 nM and 5820 nM
SF-295 CNS
  GI50: 206 nM and 236 nM
  TGI: 760 nM and 2000 nM
SF-539 CNS
  GI50: 303 nM and 214 nM
  TGI: 1200 nM and 867 nM
SK-MEL-2 melanoma
  GI50: 209 nM and 212 nM
  TGI: 471 nM and 404 nM
SK-MEL-28 melanoma
  GI50: 1610 nM
  TGI: 3900 nM and 4540 nM
SK-MEL-5 melanoma
  GI50: 171 nM and 157 nM
  TGI: 334 nM and 355 nM
SK-OV-3 ovarian
  GI50: 1940 nM and 3330 nM
  TGI: 6070 nM and 11600 nM
SN12C renal
  GI50: 278 nM and 270 nM
  TGI: 1800 nM and 3090 nM
SNB-19 CNS
  GI50: 448 nM and 848 nM
  TGI: 4060 nM and 8290 nM
SNB-75 CNS
  GI50: 421 nM and 165 nM
  TGI: 2090 nM and 722 nM
SR leukemia
  GI50: 27.9 nM and 26.4 nM
SW-620 colon
  GI50: 72.8 nM and 54.3 nM
  TGI: 766 nM and 523 nM
T-47D breast
  GI50: 385 nM and 534 nM
  TGI: 3230 nM and 4890 nM
TK-10 renal
  GI50: 187 nM and 210 nM
  TGI: 541 nM and 623 nM
U251 CNS
  GI50: 402 nM and 347 nM
  TGI: 2930 nM and 2840 nM
UACC-257 melanoma
  GI50: 1710 nM and 1490 nM
  TGI: 4450 nM and 4700 nM
UACC-62 melanoma
  GI50: 252 nM and 254 nM
  TGI: 890 nM and 833 nM
UO-31 renal
  GI50: 215 nM and 220 nM
  TGI: 681 nM and 903 nM
